What was measured:
Assay type in all cases: cell-based
[1] = tested on: UTP-stimulated Ca2+ response in HT-29 cells; assay: Ca FLIPR TETRA assay, ANTAGONIST mode, activator 0.6 μM UTP; conditions: Homo sapiens; HT-29 cells, activator 0.6 μM UTP
Experimental: (§1) Protocol for Testing PAR2 Compounds in ANTAGONIST Mode Using the Ca FLIPR^TETRA Assay (384 Well).
(§2) 23000 HT-29 cells (ATCC# HTB-38) were plated in 384-well black, transparent-flat bottom plates and incubated in 25 uL of 1% FBS/McCoy's media ON at 37° C. under an atmosphere of 5% CO2. The following day, 25 uL FLIPR calcium 5 Molecular Devices assay reagent (Cat: R-8186) was added. Plates were incubated at 37° C. and r. t. for 45 min and 15 min, respectively. Compounds dilutions were prepared in 100% DMSO using a Biomek FX and diluted 20-fold in HBSS and then 5.5 uL was added directly to the cells by the FLIPR^TETRA (10× dilution) using FLIPR Tetra Pipette tips, black, non-sterile, 384 Molecular Devices (Cat: 9000-0764).
(§3) A first read was performed to determine whether the test compounds on their own can activate Ca^2+ responses. The cells were incubated with the compounds for 30 min at r. t. and then read in ANTAGONIST mode in the same plate by stimulating with 6.2 uL of a fixed concentration of the activator: final concentrations 8 μM SLIGKV, 1 U/mL Thrombin, 3.1 U/mL trypsin, or 0.6 μM UTP.

PAR2 (HT-29 cells) [2] = biological target: T1, PAR2 (HT-29 cells) (Homo sapiens, UniProt P55085); assay: Ca FLIPR TETRA assay, ANTAGONIST mode, activator 8 μM SLIGKV; conditions: HT-29 cells, activator 8 μM SLIGKV
T1 construct: host or cells: HT-29
T1 sequence (P55085 26-397): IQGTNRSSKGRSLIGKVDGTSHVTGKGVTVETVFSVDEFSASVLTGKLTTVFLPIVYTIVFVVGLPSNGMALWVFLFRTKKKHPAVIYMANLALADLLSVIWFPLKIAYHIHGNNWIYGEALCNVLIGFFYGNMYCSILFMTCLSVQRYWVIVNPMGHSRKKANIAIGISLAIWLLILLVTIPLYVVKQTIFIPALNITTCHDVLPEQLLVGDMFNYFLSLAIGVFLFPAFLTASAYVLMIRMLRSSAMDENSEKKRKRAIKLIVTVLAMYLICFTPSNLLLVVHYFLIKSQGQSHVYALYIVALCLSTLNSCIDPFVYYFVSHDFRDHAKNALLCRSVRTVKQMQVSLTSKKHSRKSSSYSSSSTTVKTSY
Experimental: as §1, §2, §3

[3] = tested on: Thrombin-stimulated Ca2+ response in HT-29 cells; assay: Ca FLIPR TETRA assay, ANTAGONIST mode, activator 1 U/mL Thrombin; conditions: Homo sapiens; HT-29 cells, activator 1 U/mL Thrombin
Experimental: as §1, §2, §3

PAR2 (HT-29 cells) [4] = biological target: T1, PAR2 (HT-29 cells); assay: Ca FLIPR TETRA assay, ANTAGONIST mode, activator 3.1 U/mL trypsin; conditions: HT-29 cells, activator 3.1 U/mL trypsin
Experimental: as §1, §2, §3

[5] = maximal antagonist concentration per Method (A: 0.1, 1 or 2 μM; B: 50 μM)
[6] = Method A: maximal concentration of antagonist 0.1, 1 or 2 μM

Row | IC50 [1] | IC50 (PAR2 (HT-29 cells) [2]; [5]) | IC50 [3] | IC50 (PAR2 (HT-29 cells) [4]; [5]) | IC50 (PAR2 (HT-29 cells) [2]; [6]) | IC50 (PAR2 (HT-29 cells) [4]; [6]) | SMILES
1 | > 1000 nM | 4.7 nM | > 1000 nM | 3.6 nM | – | – | CC(C)(C)c1cc(-c2ccc(F)cc2)nc2cc(C(=O)N3CCN(C(=O)c4nnc[nH]4)CC3(C)C)oc12 [Example I-154]
2 | 1470 nM | – | 1500 nM | – | 0.6 nM | 0.6 nM | Cc1c(C(=O)O)ccnc1N1CCN(C(=O)c2cc3nc(-c4ccc(Cl)c(F)c4)cc(C(C)(C)C)c3o2)C(C)(C)C1 [Example I-538]
3 | > 1000 nM | 0.6 nM | > 1000 nM | 0.9 nM | – | – | CC(C)c1cc(-c2ccc(F)cc2)nc2cc(C(=O)N3CCN(C(=O)[C@H]4C[C@](O)(C(F)(F)F)C4)CC3(C)C)oc12 [Example I-134]
4 | 20000 nM | 1600 nM | 19000 nM | 4700 nM | – | – | CC(C)c1cc(-c2ccc(F)cc2)nc2cc(C(=O)N3CCN(C(=O)C4CCOC4)[C@@H](C)C3)oc12 (stereo partly shown) [Example I-80]
5 | > 2000 nM | – | > 2000 nM | – | 1.5 nM | 3 nM | CC(C)(C)c1cc(C2CCC(Cl)(Cl)CC2)nc2cc(C(=O)N3CCN(C(=O)[C@H]4C[C@@](C)(O)C4)CC3(C)C)oc12 [Example I-305]
6 | > 1000 nM | 68 nM | > 1000 nM | 240 nM | – | – | CC(C)(C)c1cc(C2CCC(F)(F)CC2)nc2cc(C(=O)N3CCNC(=O)C3(C)C)oc12 [Example I-216]
7 | > 2000 nM | 120 nM | > 2000 nM | 140 nM | – | – | CC(C)(C)c1cc(-c2ccc(Cl)c(F)c2)nc2cc(C(=O)N3CCN(C(=O)c4ccc(C(=O)O)nc4)CC3(C)C)oc12 [Example I-252]
8 | > 2000 nM | – | > 2000 nM | – | 0.2 nM | 0.1 nM | COc1cc(N2CCN(C(=O)c3cc4nc(-c5ccc(Cl)c(F)c5)cc(C(C)(C)C)c4o3)C(C)(C)C2)ncc1C(=O)O [Example I-534]
9 | > 2000 nM | – | > 2000 nM | – | 2.5 nM | 2.6 nM | CN1CCN(C(=O)c2cc3nc(-c4ccc(Cl)c(F)c4)cc(C(C)(C)C)c3o2)C(C)(C)CC1=O [Example I-522]
10 | > 2000 nM | 28 nM | > 2000 nM | 23.5 nM | – | – | Cc1cc(N2CCN(C(=O)c3cc4nc(-c5ccc(Cl)cc5)cc(C(C)(C)C)c4o3)C(C)(C)C2=O)[nH]n1 [Example I-285, 4-[7-tert-butyl-5-(4-chlorophenyl)furo[3,2-b]pyridine-2-carbonyl]-3,3-dimethyl-1-(3-methyl-1H-pyrazol-5-yl)piperazin-2-one]
11 | 29000 nM | 4.5 nM | 11000 nM | 7.8 nM | – | – | CC(C)c1cc(-c2ccc(F)cc2)nc2cc(C(=O)N3CCN(C(=O)C(O)c4ccc(F)cc4)[C@@H](C)C3)oc12 (stereo partly shown) [Example I-83]
12 | 415 nM | – | 450 nM | – | 1.2 nM | 2.4 nM | CC1(C)CCC(c2cc(C(C)(C)C)c3oc(C(=O)N4CCN(c5nccc(C(=O)O)n5)CC4(C)C)cc3n2)CC1 [Example I-455]
13 | > 2000 nM | – | > 2000 nM | – | 2 nM | 2.8 nM | Cc1n[nH]c(C(=O)N2CCN(C(=O)c3cc4nc(C5CCC(Cl)(Cl)CC5)cc(C(C)(C)C)c4o3)C(C)(C)C2)n1 [Example I-304]
14 | 13000 nM | 9100 nM | 16000 nM | 11000 nM | – | – | CC(C)c1cc(-c2ccc(F)cc2)nc2cc(C(=O)N3CCN(C(=O)C4(O)CCOCC4)C[C@H]3C)oc12 [Example I-100]
15 | > 1250 nM | – | > 1250 nM | – | 1.1 nM | 3 nM | CC(C)(C)c1cc(-c2ccc(Cl)c(F)c2)nc2cc(C(=O)N3CCN(C(=O)CCC(=O)O)CC3(C)C)oc12 [Example I-419]
16 | > 2000 nM | – | > 2000 nM | – | 2.2 nM | 2.2 nM | CC(C)(C)c1cc(-c2ccc(Cl)c(F)c2)nc2cc(C(=O)N3CCN(C(=O)CC4(C(=O)O)CCOCC4)CC3(C)C)oc12 [Example I-497]
17 | 13000 nM | 16 nM | 20000 nM | 14 nM | – | – | CC1(c2cc(-c3ccc(F)cc3)nc3cc(C(=O)N4CCN(C(=O)[C@H]5CCCO5)CC4(C)C)oc23)CC1 [Example I-30]

Row | IC50 [1] | IC50 (PAR2 (HT-29 cells) [2]; [5]) | IC50 [3] | IC50 (PAR2 (HT-29 cells) [4]; [5]) | IC50 (PAR2 (HT-29 cells) [2]; [6]) | IC50 (PAR2 (HT-29 cells) [4]; [6]) | SMILES
18 | 6700 nM | 5.9 nM | 11000 nM | 4.6 nM | – | – | CC(C)[C@@H](O)C(=O)N1CCN(C(=O)c2cc3nc(-c4ccc(F)cc4)cc(C4(C)CC4)c3o2)C(C)(C)C1 [Example I-32]
19 | > 1000 nM | 1.4 nM | > 1000 nM | 2 nM | – | – | Cc1cc(C(=O)N2CCN(C(=O)c3cc4nc(-c5ccc(Cl)cc5)cc(C(C)(C)C)c4o3)C(C)(C)C2)[nH]n1 [Example I-177]
20 | 12000 nM | 56.5 nM | 19000 nM | 41 nM | – | – | C[C@H]1CN(C(=O)c2cc3nc(-c4ccc(F)cc4)cc(C4(C)CC4)c3o2)CCN1C(=O)C(O)C1CC1 (stereo partly shown) [Example I-111]
21 | 26000 nM | 4.6 nM | > 25000 nM | 5.9 nM | – | – | CCCCC(O)C(=O)N1CCN(C(=O)c2cc3nc(-c4ccc(F)cc4)cc(C4(C)CC4)c3o2)C(C)(C)C1 (stereo not shown) [Example I-34]
22 | > 1000 nM | 7.6 nM | > 1000 nM | 9.6 nM | – | – | CC(C)(C)c1cc(-c2ccc(F)cc2)nc2cc(C(=O)N3CCNC(=O)C3(C)C)oc12 [Example I-149]
23 | > 1000 nM | 403 nM | > 1000 nM | 713 nM | – | – | CC(C)(C)c1cc(-c2ccc(F)cc2)nc2cc(C(=O)N3CCN(C(=O)C45CC(C(=O)O)(C4)C5)CC3(C)C)oc12 [Example I-191]
24 | > 50000 nM | 250 nM | > 50000 nM | 270 nM | – | – | CC(C)(C)C[C@@H](O)C(=O)N1CCN(C(=O)c2cc3nc(-c4ccc(F)cc4)nc(C4(C)CC4)c3o2)C(C)(C)C1 [Example I-129]
25 | 5200 nM | 40 nM | 4700 nM | 39 nM | – | – | CC(C)c1cc(-c2ccc(F)cc2)nc2cc(C(=O)N3CCN(C(=O)CC(C)(C)O)CC3(C)C)oc12 [Example I-62]
26 | 16000 nM | 5.1 nM | 16000 nM | 5.9 nM | – | – | CC1(c2cc(-c3ccc(F)cc3)nc3cc(C(=O)N4CCN(C(=O)C5CCC5)CC4(C)C)oc23)CC1 [Example I-48]
27 | > 2000 nM | – | > 2000 nM | – | 6.7 nM | 5.9 nM | CC1(C)CCC(c2cc(C(C)(C)C)c3oc(C(=O)N4CCN(c5cnc(C(=O)O)cn5)CC4(C)C)cc3n2)CC1 [Example I-451]
28 | 36000 nM | 2.6 nM | 35000 nM | 4.7 nM | – | – | CC(C)c1cc(-c2ccc(F)cc2)nc2cc(C(=O)N3CCN(C(=O)C4CCCC4)CC3(C)C)oc12 [Example I-71]
29 | 5400 nM | 4700 nM | 16000 nM | 5200 nM | – | – | CC(C)c1cc(-c2ccc(F)cc2)nc2cc(C(=O)N3CCN(C(=O)C4(O)CCC4)C[C@@H]3C)oc12 [Example I-102]
30 | > 1000 nM | 8.4 nM | > 1000 nM | 19 nM | – | – | Cc1cc(-c2cc(C(C)(C)C)c3oc(C(=O)N4CCN(C(=O)c5ccn[nH]5)CC4(C)C)cc3n2)ccc1F [Example I-167]
31 | > 2000 nM | – | > 2000 nM | – | 36 nM | 28.5 nM | Cc1cnc(N2CCN(C(=O)c3cc4nc(-c5ccc(Cl)cc5)cc(C(C)(C)C)c4o3)C(C)(C)C2)nc1 [Example I-388]
32 | 16000 nM | 17 nM | 15000 nM | 23 nM | – | – | CC(C)c1cc(-c2ccc(F)cc2)nc2cc(C(=O)N3CCN(C(=O)C4(O)CC4)CC3(C)C)oc12 [Example I-70]
33 | > 1000 nM | 48 nM | > 1000 nM | 76 nM | – | – | CC(C)(C)c1cc(-c2ccc(F)cc2)nc2cc(C(=O)N3CCN(C(=O)[C@H]4C[C@@H]4C(=O)O)CC3(C)C)oc12 [Example I-197]
34 | 23000 nM | 24 nM | 31000 nM | 140 nM | – | – | CC(C)c1cc(-c2ccc(F)cc2)nc2cc(C(=O)N3CCN(C(=O)[C@H]4CCCO4)CC3(C)C)oc12 [Example I-75]

Source: patent publication US20180057505A1, “BICYCLIC HETEROARYL COMPOUNDS USEFUL AS INHIBITORS OF THE PAR-2 SIGNALING PATHWAY” (VERTEX PHARMACEUTICALS INCORPORATED, priority 2015, published 2018)
